The series can be described thus: activity coefficient (dimensionless); of the first substance listed, at infinite dilution; xn = mol fraction of the nth substance listed. As to conditions: Liquid, Chromatography, x1 = 0.

Numbers after ± are expanded uncertainties.

As to `C=CC=C` [1,3-butadiene] + CC(C)O, the activity coefficient reads like this: (249.97 K) 3.9 ± 0.2; (270.03 K) 3.8 ± 0.2; (290 K) 3.7 ± 0.2; (310 K) 3.5 ± 0.2; (330 K) 3.3 ± 0.2.
Taken in the same sequence, the figures for `C=CCC` [1-butene] + CC(C)O were 4.4 ± 0.2, 4.4 ± 0.2, 4.3 ± 0.2, 4.1 ± 0.2 and 3.9 ± 0.2.
As for `CC(C)C` [2-methylpropane] + CC(C)O, the activity coefficient was 5.4 ± 0.3 (249.96 K); 5.3 ± 0.2 (270.04 K); 5.2 ± 0.2 (290 K); 5 ± 0.2 (310 K); 4.7 ± 0.2 (330 K).
`C=C(C)C` [2-methylpropene] + CC(C)O: the activity coefficient (249.97 K) turned out to be 4.4 ± 0.2; the activity coefficient (270.03 K) worked out at 4.3 ± 0.2; the activity coefficient (290 K) was 4.2 ± 0.2; the activity coefficient (310 K) stood at 4 ± 0.2; the activity coefficient (330 K) was 3.8 ± 0.2.
On to `C/C=C/C` [(E)-2-butene] + CC(C)O, for which the activity coefficient reads like this: (249.96 K) 4.3 ± 0.2; (270.04 K) 4.3 ± 0.2; (290 K) 4.2 ± 0.2; (310 K) 4.1 ± 0.2; (330 K) 3.9 ± 0.2.
`CCCC` [butane] + CC(C)O: the activity coefficient turned out to be 5.2 ± 0.2 (249.97 K); 5.1 ± 0.2 (270.03 K); 5.1 ± 0.2 (290 K); 4.9 ± 0.2 (310 K); 4.6 ± 0.2 (330 K).
`CCC` [propane] + CC(C)O: the activity coefficient runs as follows: (249.96 K) 4.5 ± 0.2; (270.04 K) 4.5 ± 0.2; (290 K) 4.4 ± 0.2; (310 K) 4.3 ± 0.2; (330 K) 4.2 ± 0.2.
Regarding `C=CC` [propene] + CC(C)O, the activity coefficient (249.96 K) was found to be 3.8 ± 0.2; the activity coefficient (270.04 K) stood at 3.7 ± 0.2; the activity coefficient (290 K) stood at 3.7 ± 0.2; the activity coefficient (310 K) came out at 3.6 ± 0.2; the activity coefficient (330 K) turned out to be 3.4 ± 0.2.

The values are drawn from the NIST ThermoML archive (doi:10.1021/je0342116).
